Data on 2 compounds can be found in patent publication US20140024700A1, “BLOOD-BORNE MIRNAS AS SURROGATE MARKERS OF DRUG EFFICACY FOR CARDIAC CONDITIONS” (miRagen Therapeutics, Inc., priority 2010, published 2014).

Series [1] relates to miR-208a, Myh6, Myh7. As to the kind of experiment: Cardiac tissue markers by Taqman RT-PCR, 4% NaCl diet (Example 2). The class given is in vivo, rat. The settings on record: 25 mg/kg sc every 2 weeks; for Myh6 expression in cardiac tissue: 25 mg/kg. As for the experimental part: The flowing experimental groups were tested:
Following catheter implant surgery, high-salt diet was initiated. […] Animals were sacrificed 8 weeks after the initial injection.
Tissue RNA was isolated using standard Trizol RNA isolation.
A general note: Quantitative PCR measures a nucleic acid by following its amplification.

Series [2] concerns Dahl salt-sensitive rats. As to the kind of experiment: Dahl salt-sensitive rat model, 6% NaCl diet: body weight and survival (Example 3). The class given is in vivo.
For series [3], the system named is plasma miRNAs. Briefly: Real-time PCR of plasma miRNAs, 6% NaCl diet (Example 3). In kind it is in vivo, rat. Here is the method:
(§1) One week following the initiation of the 6.0% NaCl diet, rats were dosed subcutaneously (sc) with saline or oligonucleotides (M−10101, 5′-CTTTTTGCTCGTCTTA-3′ (SEQ ID NO: 12) or M-10591, 5′-TCCTAGAAAGAGTAGA-3′ (SEQ ID NO:13)) at 25 mg/kg every 2 weeks. Captopril or water were dosed daily by oral gavage. Echocardiography was performed every 2 weeks starting one week post […] dosing. The Captopril dose for rat was selected to match the standard human dose in man.
Quantitative real-time PCR analysis from plasma. RNA from plasma samples was isolated using Trizol LS Reagent (Invitrogen), using the manufacturer's protocol. Prior to RNA isolation, […] of two different synthetic C. elegans miRNA sequences were added to serve as internal controls for normalization of target miRNAs. The C. elegans sequences used were cel-miR-2 ([…], SEQ ID NO:5), and cel-lin-4 ([…]; SEQ ID NO:6) (Dharmacon). The final RNA pellet was re-suspended in a final volume equal to the initial plasma volume and 5 μl was used for subsequent RT-PCR reactions, as described above.

Series [4] relates to miR-208a, miR-499, miR-208b, Myh6, Myh7b, Myh7, Dynlt1, Vcpip, Tegt. Briefly: Cardiac tissue real-time PCR, 6% NaCl diet (Example 3). The settings on record: M-10101 25 mg/kg sc, Captopril po daily. The class given is in vivo, rat. As for the experimental part:
as §1
For in vivo real-time PCR analysis, RNA was extracted from cardiac tissue using Trizol (Invitrogen) after which two μg RNA from each tissue sample was used to generate cDNA using Super Script II reverse transcriptase per manufacturer's specifications (Invitrogen). To detect the level of miR-208 RT-PCR was performed using the Taqman MicroRNA assay (Applied Biosystems, ABI) according the manufacturer's recommendations, using 10-100 ng of total RNA. The expression of a subset of genes was analyzed by quantitative real time PCR using Taqman probes purchased from AB.

Take “M-10591: control oligonucleotide targeting miR-67 from C. elegans; 5′-TCCTAGAAAGAGTAGA-3′ (SEQ ID NO:13) (LNA-modified control oligonucleotide, pattern not given here) [reference compound]”: in series [1], the “Myh7 expression in cardiac tissue” value is “significantly increased” and the “Myh6 expression in cardiac tissue” value is “significant decrease”. Moreover, in series [1] (listed as control oligonucleotide), the “Myh6 expression in cardiac tissue” value is recorded as “no effect”. For the same compound, the Body weight entry in series [2] (oligonucleotide 25 mg/kg sc every 2 weeks) was “no apparent effect on weight gain”.

`C[C@H](CS)C(=O)N1CCC[C@H]1C(=O)O` [Captopril, reference compound]: in series [3], the “Plasma miR-21” value is “reduced specifically”; the “Plasma miR-150” value is listed as “reduced specifically”; the “Plasma miR-223” value is “significantly reduced”; the “Plasma miR-423-5p, miR-106b, miR-16, miR-92a, miR-378, miR-210, miR-378*, miR-20b and miR-93” value is on record as “decreased”. For the same compound, in series [4], the “Myh7b levels in the heart” value is “no apparent effect”, the “αMHC (Myh6) in the heart (reduced by HS diet)” value was “normalized” and the “βMHC (Myh7) expression (increase induced by HS diet)” value is “reduced the increase”. Besides, the “Survival (Kaplan-Meier)” value in series [2] (1.5 mg/kg Captopril po daily) is “pronounced decrease in survival”. For the same compound, in series [2] (15 mg/kg Captopril po daily), the Body weight entry was “slightly reduced the high-salt (HS) diet-induced decrease in body weight”.
